5 compounds from publication PMC6478823, “A suite of phenotypic assays to ensure pipeline diversity when prioritizing drug-like Cryptosporidium growth inhibitors” (Nature Communications, 2019) can be followed below.

Holding throughout (assay type): cell-based, Cryptosporidium parvum
The test system of assay [1] is C. parvum. The following applies: compound at EC90; for Invasion Assay: Mean % Inhibition (parasites), Average: average of replicates; for Invasion Assay: Mean % Inhibition (parasites), Replicate 1a: single biological replicate 1; for Invasion Assay: Mean % Inhibition (parasites), Replicate 2a: single biological replicate 2; for Sporozoite invasion: yes/no grouping by phenotypic assay result. As to the method:
The first step in infection is host cell invasion, which involves a complex process encompassing oocyst excystation, parasite motility, adhesion, and parasitophorous vacuole formation (Fig. 2a). Our strategy to assay for compounds affecting invasion was simply to expose C. parvum to compounds immediately after triggering excystation and throughout the invasion process, and then enumerate the parasite vacuoles after 3 h, prior to allowing the parasites to replicate (summarized in Fig. 2b).
Fig. 2 Invasion Assay. a Overview of life cycle stage investigated during the invasion assay. Representative TEM images of a C. parvum oocyst and HCT-8 cell shortly after infection (Scale bar = 500 nm). b Schematic of experimental design. […] Each point represents the mean and SD of at least two biological replicates with four technical replicates per experiment.
C. parvum invasion inhibition was measured by modifying the 48 h growth inhibition assay described above. […] In parallel, Iowa strain oocysts were excysted. […] Assay plates were incubated at 37 °C and 5% CO2 for 3 h.

In assay [2] the test system is C. parvum DMC1 expression. As to the kind of experiment: Sexual differentiation assay (DMC1 expression). Particulars: compound at asexual EC90, 48-72 h; for Asexual to sexual differentiation: Mean % DMC1 inhibition (normalized to host nuclei), Average: average of replicates; for Asexual to sexual differentiation: Mean % DMC1 inhibition (normalized to host nuclei), Replicate 1a: single replicate 1; for Asexual to sexual differentiation: Mean % DMC1 inhibition (normalized to host nuclei), Replicate 2a: single replicate 2. From the text:
We utilized DMC1 as a marker of C. parvum sexual development, and used the anti-DMC1 monoclonal antibody to develop a moderate-throughput high-content microscopy assay for characterizing anticryptosporidial compounds (Fig. 6a). […] Therefore, in order to enable numerical comparison of the ability of compounds to block sexual development with moderate throughput, we adopted a strategy of reporting the percent inhibition of DMC1 expression by the previously determined EC90 of each compound in the standard asexual development assay (Fig. 6c and Supplementary Table 2).
Fig. 6 Assay to measure asexual-to-sexual-stage conversion. a Schematic of the experimental approach. […] For b and c the mean and SD combined from at least two biological replicates with four technical replicates per experiment are shown. […] At given time points post-infection, infected cells were washed 3 times with PBS containing 111 mM of D-galactose, fixed for 15 min at room temperature with 4% paraformaldehyde in PBS, and permeabilized with 0.25% triton X-100 in PBS for 10 min at 37 °C. Cells were then washed 3 times with PBS and blocked at least overnight at 4 °C with 1% BSA in PBS (blocking buffer). Cells were stained with monoclonal antibody (1H10G7), either neat culture supernatant or 12.8 µg/mL of purified IgG in blocking buffer for 1 h at 37 °C, followed by 2 washes with PBS. Cells were then co-stained with a 1:500 dilution (4 µg/mL) of Alexa Fluor 568 goat anti-mouse IgG (Invitrogen, catalog# A-11004) and 1.33 µg/mL fluorescein-labeled Vicia villosa lectin (Vector Laboratories, catalog# FL-1231) diluted in blocking buffer for 1 h at 37 °C. Stains were then removed and 0.09 mM Hoechst 33258 (AnaSpec, catalog# AS-83219) also diluted in blocking buffer was added for another 15 min at 37 °C, followed by 2 PBS washes and imaging on a Nikon Eclipse Ti2000 epifluorescence microscope run with NIS-Elements Advanced Research software (Nikon, USA) and equipped with an EXi blue fluorescent microscopy camera (QImaging, Canada). For enumerating parasites, tiled 2 × 2 images with 15% overlapping edges were taken using a 40 × dry objective (0.7 NA), and for finer details, Z stack images were acquired using a 60 × oil objective (1.4 NA). Lectin positive cells in focus were first counted, followed by DMC1.
For compound dose-response studies, the same assay was performed in 384-well plates and imaged using a 20 × dry objective (NA = 0.45). Tiled 4 × 4 to 6 × 6 images were taken. Images were analyzed using ImageJ software and the custom macro provided in Supplementary Method 2.

Assay [3] relates to C. parvum. As to the kind of experiment: DNA replication assay (EdU incorporation). The following applies: compound at EC90; for DNA Synthesis Assay: Mean % Inhibition of EdU-labeling (normalized to parasite numbers), Average: average of replicates; for DNA Synthesis Assay: Mean % Inhibition of EdU-labeling (normalized to parasite numbers), Replicate 1: single replicate 1; for DNA Synthesis Assay: Mean % Inhibition of EdU-labeling (normalized to parasite numbers), Replicate 2: single replicate 2; for DNA Synthesis Assay: Mean % Inhibition of EdU-labeling (normalized to parasite numbers), Replicate 3: single replicate 3; for DNA synthesis: yes/no grouping by phenotypic assay result.

As for `COc1ccc(NC(=O)N2CCCCN3C(CN(C)C)C(c4ccc(C#Cc5ccccc5)cc4)C3C2)cc1` (stereo not shown) [BRD7929], in the assay with C. parvum [1], the “Invasion Assay: Mean % Inhibition (parasites), Average” value amounted to 0.40%; the “Invasion Assay: Mean % Inhibition (parasites), Replicate 1a” value is -20%; the “Invasion Assay: Mean % Inhibition (parasites), Replicate 2a” value was found to be 20%. Besides, the “Invasion Assay: Mean % Inhibition (parasites), Replicate 3a” value with C. parvum [1] (single biological replicate 3) is recorded as 1.85%. Further, in assay [2], the “Asexual to sexual differentiation: Mean % DMC1 inhibition (normalized to host nuclei), Average” value amounted to 63.11%; the “Asexual to sexual differentiation: Mean % DMC1 inhibition (normalized to host nuclei), Replicate 1a” value was found to be 38.81%; the “Asexual to sexual differentiation: Mean % DMC1 inhibition (normalized to host nuclei), Replicate 2a” value stood at 78.93%. Moreover, the “Asexual to sexual differentiation: Mean % DMC1 inhibition (normalized to host nuclei), Replicate 3a” value in assay [2] (single replicate 3) stood at 84.43%. Moreover, in assay [2] (single replicate 4), the “Asexual to sexual differentiation: Mean % DMC1 inhibition (normalized to host nuclei), Replicate 4a” value amounted to 50.27%. In the assay on C. parvum [3], the “DNA Synthesis Assay: Mean % Inhibition of EdU-labeling (normalized to parasite numbers), Average” value was found to be 93.39%; the “DNA Synthesis Assay: Mean % Inhibition of EdU-labeling (normalized to parasite numbers), Replicate 1” value was found to be 85.08%; the “DNA Synthesis Assay: Mean % Inhibition of EdU-labeling (normalized to parasite numbers), Replicate 2” value worked out at 95.72%; the “DNA Synthesis Assay: Mean % Inhibition of EdU-labeling (normalized to parasite numbers), Replicate 3” value came out at 99.38%.

As for `Cc1cn(-c2cc(NC(=O)c3ccc(C)c(Nc4nccc(-c5cccnc5)n4)c3)cc(C(F)(F)F)c2)cn1` [Nilotinib], in the assay with C. parvum [1], the “Invasion Assay: Mean % Inhibition (parasites), Average” value is given as -21.88%; the “Invasion Assay: Mean % Inhibition (parasites), Replicate 1a” value is -24%; the “Invasion Assay: Mean % Inhibition (parasites), Replicate 2a” value is given as -19%. For the same compound, in assay [2], the “Asexual to sexual differentiation: Mean % DMC1 inhibition (normalized to host nuclei), Average” value is listed as 70.96%; the “Asexual to sexual differentiation: Mean % DMC1 inhibition (normalized to host nuclei), Replicate 1a” value stood at 66.12%; the “Asexual to sexual differentiation: Mean % DMC1 inhibition (normalized to host nuclei), Replicate 2a” value came to 75.79%. Moreover, in the assay on C. parvum [3], the “DNA Synthesis Assay: Mean % Inhibition of EdU-labeling (normalized to parasite numbers), Average” value is 22.05%; the “DNA Synthesis Assay: Mean % Inhibition of EdU-labeling (normalized to parasite numbers), Replicate 1” value worked out at 29.68%; the “DNA Synthesis Assay: Mean % Inhibition of EdU-labeling (normalized to parasite numbers), Replicate 2” value was found to be 14.41%.

For `Cc1cccc(-n2ncc3c(=O)[nH]c(-n4nc(C)cc4NC(=O)C4CC4)nc32)c1` [C-4], in the assay with C. parvum [1], the “Invasion Assay: Mean % Inhibition (parasites), Average” value was found to be 9.11%; the “Invasion Assay: Mean % Inhibition (parasites), Replicate 1a” value turned out to be 19%; the “Invasion Assay: Mean % Inhibition (parasites), Replicate 2a” value was -1.12%. Moreover, in assay [2], the “Asexual to sexual differentiation: Mean % DMC1 inhibition (normalized to host nuclei), Average” value was determined as 64.12%; the “Asexual to sexual differentiation: Mean % DMC1 inhibition (normalized to host nuclei), Replicate 1a” value amounted to 60.65%; the “Asexual to sexual differentiation: Mean % DMC1 inhibition (normalized to host nuclei), Replicate 2a” value stood at 67.59%. Besides, in the assay on C. parvum [3], the “DNA Synthesis Assay: Mean % Inhibition of EdU-labeling (normalized to parasite numbers), Average” value is listed as 99.18%; the “DNA Synthesis Assay: Mean % Inhibition of EdU-labeling (normalized to parasite numbers), Replicate 1” value stood at 98.37%; the “DNA Synthesis Assay: Mean % Inhibition of EdU-labeling (normalized to parasite numbers), Replicate 2” value turned out to be 100.00%.

As to `O=c1[nH]c(=O)n([C@H]2C[C@H](O)[C@@H](CO)O2)cc1F` [Floxuridine], in the assay with C. parvum [1], the “Invasion Assay: Mean % Inhibition (parasites), Average” value is given as -28.03%; the “Invasion Assay: Mean % Inhibition (parasites), Replicate 1a” value was -30%; the “Invasion Assay: Mean % Inhibition (parasites), Replicate 2a” value is on record as -26%; the Sporozoite invasion entry is on record as “no”. For the same compound, in assay [2], the “Asexual to sexual differentiation: Mean % DMC1 inhibition (normalized to host nuclei), Average” value was -7.53%; the “Asexual to sexual differentiation: Mean % DMC1 inhibition (normalized to host nuclei), Replicate 1a” value is given as -14.02%; the “Asexual to sexual differentiation: Mean % DMC1 inhibition (normalized to host nuclei), Replicate 2a” value is given as -1.05%. For the same compound, in the assay with C. parvum [3], the “DNA Synthesis Assay: Mean % Inhibition of EdU-labeling (normalized to parasite numbers), Average” value was found to be 20.42%; the “DNA Synthesis Assay: Mean % Inhibition of EdU-labeling (normalized to parasite numbers), Replicate 1” value is listed as 15.13%; the “DNA Synthesis Assay: Mean % Inhibition of EdU-labeling (normalized to parasite numbers), Replicate 2” value worked out at 27.54%; the “DNA Synthesis Assay: Mean % Inhibition of EdU-labeling (normalized to parasite numbers), Replicate 3” value is given as -10.47%. In addition, in the assay with C. parvum [3], the DNA synthesis result is “no”. In addition, the “DNA Synthesis Assay: Mean % Inhibition of EdU-labeling (normalized to parasite numbers), Replicate 4” value with C. parvum [3] (single replicate 4) is 28.26%. Further, the “DNA Synthesis Assay: Mean % Inhibition of EdU-labeling (normalized to parasite numbers), Replicate 5” value in the assay with C. parvum [3] (single replicate 5) was determined as 37.17%. The “DNA Synthesis Assay: Mean % Inhibition of EdU-labeling (normalized to parasite numbers), Replicate 6” value in the assay with C. parvum [3] (single replicate 6) was 24.87%.

With `[H]/N=C(/NCCCCC)N/N=C/c1c[nH]c2ccc(OC)cc12` [Tegaserod], in the assay on C. parvum [1], the “Invasion Assay: Mean % Inhibition (parasites), Average” value is 13.93%; the “Invasion Assay: Mean % Inhibition (parasites), Replicate 1a” value came out at 26%; the “Invasion Assay: Mean % Inhibition (parasites), Replicate 2a” value stood at 2%; the Sporozoite invasion entry was “no”. Also, in assay [2], the “Asexual to sexual differentiation: Mean % DMC1 inhibition (normalized to host nuclei), Average” value turned out to be 12.05%; the “Asexual to sexual differentiation: Mean % DMC1 inhibition (normalized to host nuclei), Replicate 1a” value is reported as 41.94%; the “Asexual to sexual differentiation: Mean % DMC1 inhibition (normalized to host nuclei), Replicate 2a” value was -17.83%. Besides, in the assay on C. parvum [3], the “DNA Synthesis Assay: Mean % Inhibition of EdU-labeling (normalized to parasite numbers), Average” value is -6.72%; the “DNA Synthesis Assay: Mean % Inhibition of EdU-labeling (normalized to parasite numbers), Replicate 1” value is -11.69%; the “DNA Synthesis Assay: Mean % Inhibition of EdU-labeling (normalized to parasite numbers), Replicate 2” value was -25.63%; the “DNA Synthesis Assay: Mean % Inhibition of EdU-labeling (normalized to parasite numbers), Replicate 3” value was 17.15%. For the same compound, the DNA synthesis entry with C. parvum [3] was “no”.
